The text below walks through data of US20260325540A1 (priority 2023, published 2026).

Test [1] addresses SARS-CoV-2 3CLpro (Severe acute respiratory syndrome coronavirus 2, UniProt P0DTD1). Kind of test: FRET based protease assay, SARS-CoV-2 3CL. It counts as biochemical, SARS-CoV-2 (strain BetaCoV/Wuhan/WIV04/2019).
Test [2] addresses MERS-CoV 3CLpro (Middle East respiratory syndrome-related coronavirus, UniProt K9N638). Nature of the test: biochemical. The note with it: MERS IC50, 75 nM MERS-CoV 3CLpro, 6 μM peptide 1 substrate, 25° C., 1.5 hrs, pH 7.5.

Chain of MERS-CoV 3CLpro (K9N638 3248-3553 limits assumed): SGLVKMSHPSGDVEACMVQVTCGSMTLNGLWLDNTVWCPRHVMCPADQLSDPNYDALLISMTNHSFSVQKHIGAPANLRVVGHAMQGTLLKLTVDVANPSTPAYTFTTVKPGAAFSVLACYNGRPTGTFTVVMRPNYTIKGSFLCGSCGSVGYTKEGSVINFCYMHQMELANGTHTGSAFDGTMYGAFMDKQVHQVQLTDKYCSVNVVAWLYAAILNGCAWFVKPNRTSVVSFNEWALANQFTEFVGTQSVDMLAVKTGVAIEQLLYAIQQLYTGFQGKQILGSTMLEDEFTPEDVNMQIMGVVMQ

For `CC(C)C[C@@H]1NC(=O)[C@@H](NC(=O)C(C)(C)C)CCCC[C@H]2CNC(=O)[C@@H]2C[C@@H](C#N)NC1=O` [Example 54], the IC50 in test [1] and in test [2] was 100 to 1000 nM in each case.

For the molecule `CC(C)(C)C(=O)N[C@H]1CCCC[C@H]2CNC(=O)[C@H]2C[C@@H](C#N)NC(=O)[C@@H]2[C@@H]3[C@H](CN2C1=O)C3(C)C` [Example 55], the IC50 in test [1] was < 100 nM; in test [2], 100 to 1000 nM.

Regarding `CC(C)C[C@@H]1NC(=O)[C@@H](NC(=O)OC(C)(C)C)CCCC[C@H]2CNC(=O)[C@H]2C[C@@H](C#N)NC1=O` [Example 56], the IC50 in test [1] and in test [2] was 100 to 1000 nM throughout.

For `CC(C)C[C@H]1C(=O)N[C@H](C#N)C[C@@H]2C(=O)NC[C@@H]2CCCC[C@H](NC(=O)C(C)(C)C)C(=O)N1C` [Example 57], the results for the IC50 in test [1] and in test [2] were 100 to 1000 nM and 1000 to 20000 nM, respectively.

For `CC(C)C[C@@H]1NC(=O)[C@@H](NC(=O)C(C)(C)C)CC/C=C/[C@H]2CNC(=O)[C@H]2C[C@@H](C#N)NC1=O` [Example 58], the IC50 in test [1] is < 100 nM; in test [2], 100 to 1000 nM.

Take `CC(C)C[C@@H]1NC(=O)[C@@H](NC(=O)C(C)(C)C)CC/C=C\[C@H]2CNC(=O)[C@H]2C[C@@H](C#N)NC1=O` [Example 59]: the IC50 in test [1] was 100 to 1000 nM; in test [2], 1000 to 20000 nM.

Take `CC(C)(C)C[C@@H]1NC(=O)[C@@H](NC(=O)OC(C)(C)C)CCCC[C@H]2CNC(=O)[C@H]2C[C@@H](C#N)NC1=O` [Example 60]: the IC50 in test [1] was < 100 nM; in test [2], 100 to 1000 nM.

Consider `CC(C)(C)C(=O)N[C@H]1CC/C=C/[C@H]2CNC(=O)[C@H]2C[C@@H](C#N)NC(=O)[C@@H]2[C@@H]3[C@H](CN2C1=O)C3(C)C` [Example 61], for which the IC50 in test [1] and in test [2] was < 100 nM throughout.

Take `CC1(C)[C@@H]2[C@H]3C(=O)N[C@H](C#N)C[C@@H]4C(=O)NC[C@@H]4CCCC[C@H](NC(=O)C4CC(F)(F)C4)C(=O)N3C[C@@H]21` [Example 62]: the IC50 in test [1] and in test [2] was < 100 nM in each case.

Regarding `CC(C)(C)C(=O)N[C@H]1C/C=C/[C@H]2CNC(=O)[C@H]2C[C@@H](C#N)NC(=O)[C@@H]2[C@@H]3[C@H](CN2C1=O)C3(C)C` [Example 63], the IC50 in test [1] is < 100 nM; in test [2], 100 to 1000 nM.

As for `CC(C)(C)C(=O)N[C@H]1C/C=C\[C@H]2CNC(=O)[C@H]2C[C@@H](C#N)NC(=O)[C@@H]2[C@@H]3[C@H](CN2C1=O)C3(C)C` [Example 64], the IC50 in test [1] and in test [2] was > 20000 nM each time.

For the molecule `CC(C)(C)C(=O)N[C@H]1CCCC[C@H]2CCNC(=O)[C@@H]2C[C@@H](C#N)NC(=O)[C@@H]2[C@@H]3[C@H](CN2C1=O)C3(C)C` [Example 65], the values for the IC50 in test [1] and in test [2] were < 100 nM and 100 to 1000 nM, respectively.

In the case of `CC(C)(C)C(=O)N[C@H]1CCC[C@H]2CCNC(=O)[C@@H]2C[C@@H](C#N)NC(=O)[C@@H]2[C@@H]3[C@H](CN2C1=O)C3(C)C` [Example 66], the results for the IC50 in test [1] and in test [2] were < 100 nM and 100 to 1000 nM, respectively.

In the case of `CC(C)(C)C(=O)N[C@H]1CCCC[C@H]2CNC(=O)[C@@H]2C[C@@H](C#N)NC(=O)[C@@H]2[C@@H]3[C@H](CN2C1=O)C3(C)C` [Example 67], the IC50 in test [1] and in test [2] was 100 to 1000 nM throughout.

On to `CC1(C)[C@@H]2[C@H]3C(=O)N[C@H](C#N)C[C@@H]4C(=O)NC[C@@H]4CCCC[C@H](NC(=O)C4CCC(F)(F)CC4)C(=O)N3C[C@@H]21` [Example 68], for which the IC50 in test [1] and in test [2] was < 100 nM throughout.

On to `CC(C)(C)C(=O)N[C@H]1CCCC[C@H]2CCNC(=O)[C@H]2C[C@@H](C#N)NC(=O)[C@@H]2[C@@H]3[C@H](CN2C1=O)C3(C)C` [Example 69], for which the values for the IC50 in test [1] and in test [2] were < 100 nM and 100 to 1000 nM, respectively.

In the case of `CC(C)(C)C(=O)N[C@H]1CCCC[C@H]2CNC(=O)[C@H]2C[C@@H](C#N)NC(=O)[C@@H]2[C@H]3CCC[C@H]3CN2C1=O` [Example 70], the IC50 in test [1] was < 100 nM; in test [2], 100 to 1000 nM.

`CC(C)(C)C(=O)N[C@H]1CCCC[C@H]2CNC(=O)[C@H]2C[C@@H](C#N)NC(=O)[C@@H]2CCCCN2C1=O` [Example 71]: the IC50 in test [1] and in test [2] was 1000 to 20000 nM throughout.

For `CC(C)(C)OC(=O)N[C@H]1CCCC[C@H]2CNC(=O)[C@H]2C[C@@H](C#N)NC(=O)[C@@H]2[C@@H]3[C@H](CN2C1=O)C3(C)C` [Example 72], the IC50 in test [1] and in test [2] was < 100 nM in each case.

On to `CC(C)(C)CC(=O)N[C@H]1CCCC[C@H]2CNC(=O)[C@H]2C[C@@H](C#N)NC(=O)[C@@H]2[C@@H]3[C@H](CN2C1=O)C3(C)C` [Example 73], for which the IC50 in test [1] and in test [2] was < 100 nM in each case.

In the case of `CC(C)(C)C(=O)N[C@H]1CCCC[C@H]2CNC(=O)[C@H]2C[C@@H](C#N)NC(=O)[C@@H]2CCCN2C1=O` [Example 74], the IC50 in test [1] and in test [2] was 1000 to 20000 nM each time.

In the case of `CC1(C)[C@@H]2[C@H]3C(=O)N[C@H](C#N)C[C@@H]4C(=O)NC[C@@H]4CCCC[C@H](NC(=O)OC4CCCC4)C(=O)N3C[C@@H]21` [Example 75], the IC50 in test [1] and in test [2] was < 100 nM throughout.

For the molecule `CC1(C)[C@@H]2[C@H]3C(=O)N[C@H](C#N)C[C@@H]4C(=O)NC[C@@H]4CCCC[C@H](NC(=O)C4CCC4)C(=O)N3C[C@@H]21` [Example 76], the IC50 was < 100 nM in test [1] and 100 to 1000 nM in test [2].

Consider `CC1(C)[C@@H]2[C@H]3C(=O)N[C@H](C#N)C[C@@H]4C(=O)NC[C@@H]4CCCC[C@H](NC(=O)C4CCCCC4)C(=O)N3C[C@@H]21` [Example 77], for which the IC50 in test [1] and in test [2] was < 100 nM each time.

Consider `CN1C(=O)[C@@H](NC(=O)C(C)(C)C)CCCC[C@H]2CNC(=O)[C@H]2C[C@@H](C#N)NC(=O)[C@@H]1CC(C)(C)C` [Example 78], for which the IC50 in test [1] is < 100 nM; in test [2] it was 1000 to 20000 nM.

Regarding `CC(C)(C)OC(=O)N[C@H]1CCCC[C@H]2CNC(=O)[C@H]2C[C@@H](C#N)NC(=O)[C@@H]2[C@H]3CCC[C@H]3CN2C1=O` [Example 79], the results for the IC50 in test [1] and in test [2] were < 100 nM and 100 to 1000 nM, respectively.

With `CC(C)(C)C(=O)N[C@H]1CCCC[C@H]2CNC(=O)[C@H]2C[C@@H](C#N)NC(=O)[C@H](C2CCCC2)NC1=O` [Example 80], the IC50 in test [1] and in test [2] was 100 to 1000 nM in each case.

In the case of `CC1(C)[C@@H]2[C@H]3C(=O)N[C@H](C#N)C[C@@H]4C(=O)NC[C@@H]4CCCC[C@H](NC(=O)C4CC5(CCC5)C4)C(=O)N3C[C@@H]21` (some centres unmarked) [Example 81], the figures for the IC50 in test [1] and in test [2] were < 100 nM and 100 to 1000 nM, respectively.

For `CC1(C)[C@@H]2[C@H]3C(=O)N[C@H](C#N)C[C@@H]4C(=O)NC[C@@H]4CCCC[C@H](NC(=O)c4ccc(F)cc4)C(=O)N3C[C@@H]21` [Example 82], the IC50 in test [1] and in test [2] was < 100 nM throughout.

As for `CC1(C)[C@@H]2[C@H]3C(=O)N[C@H](C#N)C[C@@H]4C(=O)NC[C@@H]4/C=C/CC[C@H](NC(=O)C4CC(F)(F)C4)C(=O)N3C[C@@H]21` [Example 83], the IC50 in test [1] and in test [2] was < 100 nM throughout.

As to `N#C[C@@H]1C[C@@H]2C(=O)NC[C@@H]2CCCC[C@H](NC(=O)C2CC(F)(F)C2)C(=O)N2C[C@@H]3CCC[C@@H]3[C@H]2C(=O)N1` [Example 84], the IC50 is < 100 nM in test [1] and 100 to 1000 nM in test [2].

One may read the IC50 as the midpoint of a concentration-inhibition curve. Read a low IC50 as inhibition by little substance.
